Source: patent publication US5840684A, “Glycopeptide antibiotic derivatives” (Eli Lilly and Company, priority 1995, dated 1998)
≈ marks a conversion by molar mass, not a printed value.

What was measured:
[1] = system: Entercoccus faecium 180-1; test: broth micro-dilution MIC; type: cell-based
Description: (§1) The MIC's were determined using a standard broth micro-dilution assay.

Entercoccus faecium 276 = test: broth micro-dilution MIC; type: cell-based
Description: as §1

[2] = system: Staphylococcus aureus 446; test: broth micro-dilution MIC; type: cell-based
Description: as §1

[3] = system: Staphylococcus aureus X400; test: broth micro-dilution MIC; type: cell-based
Description: as §1

[4] = system: Staphylococcus aureus 491; test: broth micro-dilution MIC; type: cell-based
Description: as §1

[5] = system: Staphylococcus aureus X778; test: broth micro-dilution MIC; type: cell-based
Description: as §1

[6] = system: Staphylococcus aureus 447; test: broth micro-dilution MIC; type: cell-based
Description: as §1

[7] = system: Staphylococcus aureus SA1199; test: broth micro-dilution MIC; type: cell-based
Description: as §1

[8] = system: Streptococcus pyogenes C203; test: broth micro-dilution MIC; type: cell-based
Description: as §1

[9] = system: Staphylococcus aureus 489; test: broth micro-dilution MIC; type: cell-based
Description: as §1

[10] = system: Staphylococcus aureus SA1199A; test: broth micro-dilution MIC; type: cell-based
Description: as §1

Entercoccus faecium 180 = test: broth micro-dilution MIC; type: cell-based; details: Entercoccus faecium 180
Description: (§2) The formula I compounds have in vitro and in vivo activity against Gram-positive pathogenic bacteria. The MIC's were determined using a standard broth micro-dilution assay.

[11] = system: Enterococcus gallinarum 245; test: broth micro-dilution MIC; type: cell-based; details: Enterococcus gallinarum 245
Description: as §2

Entercoccus faecium 2041 = test: broth micro-dilution MIC; type: cell-based; details: Entercoccus faecium 2041
Description: as §2

[12] = system: Staphylococcus haemolyticus 105; test: broth micro-dilution MIC; type: cell-based
Description: as §2

[13] = system: Staphylococcus epidermidis 270; test: broth micro-dilution MIC; type: cell-based
Description: as §2

[14] = system: Streptococcus pneumoniae P1; test: broth micro-dilution MIC; type: cell-based
Description: as §2

[15] = system: Staphylococcus haemolyticus 415; test: broth micro-dilution MIC; type: cell-based
Description: as §2

[16] = system: Staphylococcus aureus SA1199B; type: cell-based
Description: as §1

[17] = system: Staphylococcus aureus S13E; type: cell-based
Description: as §1

[18] = system: vancomycin-resistant enterococci; test: broth micro-dilution, mean geometric MIC; type: cell-based, Enterococcus faecium and Enterococcus faecalis; details: enterococci, 24-hour incubation
[19] = system: vancomycin-susceptible enterococci; test: broth micro-dilution, mean geometric MIC; type: cell-based, Enterococcus faecium and Enterococcus faecalis; details: enterococci, 24-hour incubation

SMILES | MIC [1] [µg/mL] | MIC (Entercoccus faecium 276) [µg/mL] | MIC [2] [µg/mL] | MIC [3] [µg/mL] | MIC [4] [µg/mL] | MIC [5] [µg/mL] | MIC [6] [µg/mL] | MIC [7] [µg/mL] | MIC [8] [µg/mL] | MIC [9] [µg/mL] | MIC [10] [µg/mL] | MIC (Entercoccus faecium 180) [µg/mL] | MIC [11] [µg/mL] | MIC (Entercoccus faecium 2041) [µg/mL] | MIC [12] [µg/mL] | MIC [13] [µg/mL] | MIC [14] [µg/mL] | MIC [15] [µg/mL] | MIC [16] [µg/mL] | MIC [17] [µg/mL] | also measured
CNC(CC(C)C)C(=O)NC1C(=O)NC(CC(N)=O)C(=O)NC2C(=O)NC3C(=O)NC(C(=O)NC(C(=O)O)c4cc(O)cc(O)c4-c4cc3ccc4O)C(OC3CC(C)(N)C(O)C(C)O3)c3ccc(c(Cl)c3)Oc3cc2cc(c3OC2OC(CO)C(O)C(O)C2OC2CC(C)(NCc3c4ccccc4cc4ccccc34)C(O)C(C)O2)Oc2ccc(cc2Cl)C1O (stereo not shown) [Compound 13] | ≤ 0.06 | 0.5 (≈ 0.28 µM) | 2 (≈ 1.12 µM) | 1 (≈ 0.561 µM) | 2 (≈ 1.12 µM) | 2 (≈ 1.12 µM) | 8 (≈ 4.49 µM) | 0.5 (≈ 0.28 µM) | ≤ 0.06 | 1 (≈ 0.561 µM) | ≤ 0.06 | 2 (≈ 1.12 µM) | 0.25 (≈ 0.14 µM) | 0.125 (≈ 0.0701 µM) | 8 (≈ 4.49 µM) | 8 (≈ 4.49 µM) | ≤ 0.06 | 1 (≈ 0.561 µM) | 4 (≈ 2.24 µM) | 0.25 (≈ 0.14 µM) | mean geometric MIC, Vancomycin Resistant Strains [18]: 19 µg/mL; mean geometric MIC, Vancomycin Sensitive Strains [19]: 0.76 µg/mL
CNC(CC(C)C)C(=O)NC1C(=O)NC(CC(N)=O)C(=O)NC2C(=O)NC3C(=O)NC(C(=O)NC(C(=O)O)c4cc(O)cc(O)c4-c4cc3ccc4O)C(OC3CC(C)(N)C(O)C(C)O3)c3ccc(c(Cl)c3)Oc3cc2cc(c3OC2OC(CO)C(O)C(O)C2OC2CC(C)(NCc3cccc(OC4CCCCC4)c3)C(O)C(C)O2)Oc2ccc(cc2Cl)C1O (stereo not shown) [Compound 153] | ≤ 0.06 | 0.5 (≈ 0.281 µM) | 0.5 (≈ 0.281 µM) | 0.5 (≈ 0.281 µM) | 0.125 (≈ 0.0702 µM) | 0.5 (≈ 0.281 µM) | 0.5 (≈ 0.281 µM) | 0.5 (≈ 0.281 µM) | ≤ 0.06 | 1 (≈ 0.562 µM) | ≤ 0.06 | 0.125 (≈ 0.0702 µM) | 1 (≈ 0.562 µM) | ≤ 0.06 | 2 (≈ 1.12 µM) | 0.25 (≈ 0.14 µM) | ≤ 0.06 | 1 (≈ 0.562 µM) | 0.25 (≈ 0.14 µM) | 0.125 (≈ 0.0702 µM) | mean geometric MIC, Vancomycin Resistant Strains [18]: 1.4 µg/mL; mean geometric MIC, Vancomycin Sensitive Strains [19]: 0.083 µg/mL
CNC(CC(C)C)C(=O)NC1C(=O)NC(CC(N)=O)C(=O)NC2C(=O)NC3C(=O)NC(C(=O)NC(C(=O)O)c4cc(O)cc(O)c4-c4cc3ccc4O)C(OC3CC(C)(N)C(O)C(C)O3)c3ccc(c(Cl)c3)Oc3cc2cc(c3OC2OC(CO)C(O)C(O)C2OC2CC(C)(NCc3ccc(S(=O)(=O)N4CCCC4)cc3)C(O)C(C)O2)Oc2ccc(cc2Cl)C1O (stereo not shown) [Compound 174] | ≤ 0.06 | ≤ 0.06 | 0.5 (≈ 0.275 µM) | ≤ 0.06 | 1 (≈ 0.551 µM) | ≤ 0.06 | 4 (≈ 2.2 µM) | ≤ 0.06 | ≤ 0.06 | ≤ 0.06 | ≤ 0.06 | 2 (≈ 1.1 µM) | 16 (≈ 8.81 µM) | ≤ 0.06 | 4 (≈ 2.2 µM) | 2 (≈ 1.1 µM) | ≤ 0.06 | 16 (≈ 8.81 µM) | 0.125 (≈ 0.0688 µM) | ≤ 0.06 | mean geometric MIC, Vancomycin Resistant Strains [18]: 19 µg/mL; mean geometric MIC, Vancomycin Sensitive Strains [19]: 0.76 µg/mL
CCCOC(c1ccccc1)c1ccc(CNC2(C)CC(OC3C(Oc4c5cc6cc4Oc4ccc(cc4Cl)C(OC4CC(C)(N)C(O)C(C)O4)C4NC(=O)C(NC(=O)C6NC(=O)C(CC(N)=O)NC(=O)C(NC(=O)C(CC(C)C)NC)C(O)c6ccc(c(Cl)c6)O5)c5ccc(O)c(c5)-c5c(O)cc(O)cc5C(C(=O)O)NC4=O)OC(CO)C(O)C3O)OC(C)C2O)cc1 (stereo not shown) [Compound 128] | 0.125 (≈ 0.0683 µM) | 1 (≈ 0.546 µM) | 4 (≈ 2.18 µM) | 1 (≈ 0.546 µM) | 2 (≈ 1.09 µM) | 1 (≈ 0.546 µM) | 1 (≈ 0.546 µM) | 0.5 (≈ 0.273 µM) | ≤ 0.06 | 1 (≈ 0.546 µM) | 0.5 (≈ 0.273 µM) | 1 (≈ 0.546 µM) | 2 (≈ 1.09 µM) | 0.5 (≈ 0.273 µM) | 1 (≈ 0.546 µM) | 1 (≈ 0.546 µM) | ≤ 0.06 | 2 (≈ 1.09 µM) | 2 (≈ 1.09 µM) | 1 (≈ 0.546 µM) | mean geometric MIC, Vancomycin Resistant Strains [18]: 2.0 µg/mL; mean geometric MIC, Vancomycin Sensitive Strains [19]: 0.11 µg/mL
CNC(CC(C)C)C(=O)NC1C(=O)NC(CC(N)=O)C(=O)NC2C(=O)NC3C(=O)NC(C(=O)NC(C(=O)O)c4cc(O)cc(O)c4-c4cc3ccc4O)C(OC3CC(C)(N)C(O)C(C)O3)c3ccc(c(Cl)c3)Oc3cc2cc(c3OC2OC(CO)C(O)C(O)C2OC2CC(C)(NCc3ccc(OS(=O)(=O)c4c(C)c(C)c(C)c(C)c4C)cc3)C(O)C(C)O2)Oc2ccc(cc2Cl)C1O (stereo not shown) [Compound 173] | 0.5 (≈ 0.262 µM) | 2 (≈ 1.05 µM) | 4 (≈ 2.1 µM) | 4 (≈ 2.1 µM) | 2 (≈ 1.05 µM) | 4 (≈ 2.1 µM) | 4 (≈ 2.1 µM) | 2 (≈ 1.05 µM) | ≤ 0.06 | 2 (≈ 1.05 µM) | 0.5 (≈ 0.262 µM) | 0.5 (≈ 0.262 µM) | 4 (≈ 2.1 µM) | 0.5 (≈ 0.262 µM) | 2 (≈ 1.05 µM) | 2 (≈ 1.05 µM) | ≤ 0.06 | 4 (≈ 2.1 µM) | 4 (≈ 2.1 µM) | 4 (≈ 2.1 µM) | mean geometric MIC, Vancomycin Resistant Strains [18]: 2.0 µg/mL; mean geometric MIC, Vancomycin Sensitive Strains [19]: 0.12 µg/mL
CNC(CC(C)C)C(=O)NC1C(=O)NC(CC(N)=O)C(=O)NC2C(=O)NC3C(=O)NC(C(=O)NC(C(=O)O)c4cc(O)cc(O)c4-c4cc3ccc4O)C(OC3CC(C)(N)C(O)C(C)O3)c3ccc(c(Cl)c3)Oc3cc2cc(c3OC2OC(CO)C(O)C(O)C2OC2CC(C)(NCc3ccc4c(c3)CCc3ccccc3-4)C(O)C(C)O2)Oc2ccc(cc2Cl)C1O (stereo not shown) [Compound 220] | ≤ 0.06 | 0.125 (≈ 0.07 µM) | 1 (≈ 0.56 µM) | 0.5 (≈ 0.28 µM) | ≤ 0.06 | 0.5 (≈ 0.28 µM) | 0.5 (≈ 0.28 µM) | 1 (≈ 0.56 µM) | ≤ 0.06 | 0.5 (≈ 0.28 µM) | ≤ 0.06 | 0.125 (≈ 0.07 µM) | 0.5 (≈ 0.28 µM) | ≤ 0.06 | 0.5 (≈ 0.28 µM) | 1 (≈ 0.56 µM) | ≤ 0.06 | 0.5 (≈ 0.28 µM) | 0.5 (≈ 0.28 µM) | 0.5 (≈ 0.28 µM) | mean geometric MIC, Vancomycin Resistant Strains [18]: 0.71 µg/mL; mean geometric MIC, Vancomycin Sensitive Strains [19]: 0.05 µg/mL
CN[C@H](CC(C)C)C(=O)N[C@H]1C(=O)N[C@@H](CC(N)=O)C(=O)N[C@H]2C(=O)N[C@H]3C(=O)N[C@H](C(=O)N[C@H](C(=O)O)c4cc(O)cc(O)c4-c4cc3ccc4O)[C@H](O[C@H]3C[C@](C)(N)[C@@H](O)[C@H](C)O3)c3ccc(c(Cl)c3)Oc3cc2cc(c3O[C@@H]2O[C@H](CO)[C@@H](O)[C@H](O)[C@H]2O[C@H]2C[C@](C)(NCc3ccc(Oc4ccc(C)cc4)cc3)[C@@H](O)[C@H](C)O2)Oc2ccc(cc2Cl)[C@H]1O [Compound 95] | ≤ 0.06 | 0.125 (≈ 0.0699 µM) | 0.5 (≈ 0.28 µM) | 1 (≈ 0.559 µM) | 1 (≈ 0.559 µM) | 1 (≈ 0.559 µM) | 0.5 (≈ 0.28 µM) | 0.5 (≈ 0.28 µM) | ≤ 0.06 | 2 (≈ 1.12 µM) | ≤ 0.06 | 0.5 (≈ 0.28 µM) | 1 (≈ 0.559 µM) | ≤ 0.06 | 1 (≈ 0.559 µM) | 1 (≈ 0.559 µM) | ≤ 0.06 | 1 (≈ 0.559 µM) | 1 (≈ 0.559 µM) | 2 (≈ 1.12 µM) | mean geometric MIC, Vancomycin Resistant Strains [18]: 1.7 µg/mL; mean geometric MIC, Vancomycin Sensitive Strains [19]: 0.054 µg/mL
